Assay results as given in patent US6603046B1, “Bis-aromatic a,β-unsaturated ketones” (Lica Pharmaceuticals A/S, priority 1992, dated 2003).
Converted amounts (≈) assume the structure as drawn. “And” between values parts separate entries of the source, which are not always exact repeats. Equal values may be shown once. Read-outs that look alike come from different tables or passages of the source.

How the values were obtained:
P. yoelii strain YM = P. yoelii strain YM infection in mice, parasitemia and mortality (Example 16); assay type: in vivo, BALB/c mice; details: for % parasitemia, Mean: orally 100 mg/kg/dose 3 and 24 h after infection
Gram positive cocci = test: MIC, macrodilution (Example 17), text summary; assay type: cell-based
Sarcina lutea = test: MIC, macrodilution (Example 17); assay type: cell-based; details: Micrococcus luteus; 1 strain
L. pneumophilia = test: microbe, parasite or virus in culture; assay type: cell-based; details: Legionella pneumophila
[1] = D + 11, 10 mg per kg twice daily days +1 to +4
[2] = D + 12, 10 mg per kg twice daily days +1 to +4
[3] = D + 12, i.p. 10 mg/kg twice daily D-1, D0
[4] = D + 14, i.p. 10 mg/kg twice daily D-1, D0
[5] = D + 15, 10 mg per kg twice daily days +1 to +4
[6] = D + 16, 10 mg per kg twice daily days +1 to +4
[7] = D + 16, i.p. 10 mg/kg four times daily D + 4 to D + 7
[8] = D + 16, i.p. 10 mg/kg twice daily D-1, D0
[9] = D + 17, 10 mg per kg twice daily days +1 to +4
[10] = D + 18, i.p. 10 mg/kg four times daily D + 4 to D + 7
[11] = D + 18, i.p. 10 mg/kg twice daily D-1, D0
[12] = D + 20, i.p. 10 mg/kg four times daily D + 4 to D + 7
[13] = D + 20, i.p. 10 mg/kg twice daily D-1, D0

C=CC(C)(C)c1cc(/C=C/C(=O)c2ccc(O)cc2)c(OC)cc1O [Licochalcone A, licochalcone A]
Parasitemia, single mice (P. yoelii strain YM; D + 9, 10 mg per kg twice daily days +1 to +4): 20.0% and 18.0% and 31.0% | Parasitemia, mean (P. yoelii strain YM; D + 10, 10 mg per kg twice daily days +1 to +4): 25.5% | Parasitemia, single mice (P. yoelii strain YM; D + 10, 10 mg/kg/day in 2 injections, days +1 to +6, 10 mg/kg/day): 39.0% and 42.0% | % parasitemia (mean ± SEM) (P. yoelii strain YM; D + 10, 10 mg/kg/day twice daily, 3 h after infection, D + 1 to D + 5): 6.0 ± 3.8% | % parasitemia (mean ± SEM) (P. yoelii strain YM; D + 10, 15 mg/kg/day twice daily, 3 h after infection, D + 1 to D + 5): 0% | Parasitemia, single mice (P. yoelii strain YM; D + 10, 20 mg/kg/day in 2 injections, days +1 to +6, 20 mg/kg/day): 5.0% and 8.0% | Parasitemia, single mice (P. yoelii strain YM; D + 10, 40 mg/kg/day in 2 injections, days +1 to +6, 40 mg/kg/day): 32.0% and 38.0% | mortality (no. of dead mice/total no. of tested mice) (P. yoelii strain YM; D + 10, i.p. 5 mg/kg/day twice daily to D + 3): (2/5) | % parasitemia (mean ± SEM) (P. yoelii strain YM; D + 10, i.p. 5 mg/kg/day twice daily, 3 h after infection and D + 1 to D + 3): 64 ± 5.0% | % parasitemia (mean ± SEM) (P. yoelii strain YM; D + 10, i.p. 10 mg/kg four times daily D + 4 to D + 7): 27.6 ± 12.1% | % parasitemia (mean ± SEM) (P. yoelii strain YM; D + 10, i.p. 10 mg/kg twice daily D-1, D0): 47.4 ± 27.7% | mortality (no. of dead mice/total no. of tested mice) (P. yoelii strain YM; D + 10, i.p. 10 mg/kg/day twice daily to D + 3): (1/5) | % parasitemia (mean ± SEM) (P. yoelii strain YM; D + 10, i.p. 10 mg/kg/day twice daily, 3 h after infection and D + 1 to D + 3): 48 ± 5.4% | mortality (no. of dead mice/total no. of tested mice) (P. yoelii strain YM; D + 10, i.p. 15 mg/kg/day twice daily to D + 3): (1/5) | % parasitemia (mean ± SEM) (P. yoelii strain YM; D + 10, i.p. 15 mg/kg/day twice daily, 3 h after infection and D + 1 to D + 3): 22 ± 11.6% | % parasitemia, Mean (P. yoelii strain YM; D + 10): 43% | Parasitemia, mean (P. yoelii strain YM; [1]): 37.0% | Parasitemia, single mice (P. yoelii strain YM; [1]): 33.0% and 41.0% | Parasitemia, single mice (P. yoelii strain YM; D + 11, 40 mg/kg/day in 2 injections, days +1 to +6, 40 mg/kg/day): 51.0% | Parasitemia, mean (P. yoelii strain YM; [2]): 74.0% | Parasitemia, single mice (P. yoelii strain YM; [2]): 80.0% and 68.0% | % parasitemia (mean ± SEM) (P. yoelii strain YM; D + 12, 10 mg/kg/day twice daily, 3 h after infection, D + 1 to D + 5): 14.4 ± 8.9% | % parasitemia (mean ± SEM) (P. yoelii strain YM; D + 12, 15 mg/kg/day twice daily, 3 h after infection, D + 1 to D + 5): 0% | mortality (no. of dead mice/total no. of tested mice) (P. yoelii strain YM; D + 12, i.p. 5 mg/kg/day twice daily to D + 3): (5/5) | % parasitemia (mean ± SEM) (P. yoelii strain YM; D + 12, i.p. 10 mg/kg four times daily D + 4 to D + 7): 50.4 ± 15.6% | % parasitemia (mean ± SEM) (P. yoelii strain YM; [3]): 55.7 ± 48.4% | mortality (no. of dead mice/total no. of tested mice) (P. yoelii strain YM; [3]): 2/5 | mortality (no. of dead mice/total no. of tested mice) (P. yoelii strain YM; D + 12, i.p. 10 mg/kg/day twice daily to D + 3): 4/5 | % parasitemia (mean ± SEM) (P. yoelii strain YM; D + 12, i.p. 10 mg/kg/day twice daily, 3 h after infection and D + 1 to D + 3): 82% | mortality (no. of dead mice/total no. of tested mice) (P. yoelii strain YM; D + 12, i.p. 15 mg/kg/day twice daily to D + 3): (1/5) | % parasitemia (mean ± SEM) (P. yoelii strain YM; D + 12, i.p. 15 mg/kg/day twice daily, 3 h after infection and D + 1 to D + 3): 4.8 ± 3.2% | Parasitemia, mean (P. yoelii strain YM; D + 13, 10 mg per kg twice daily days +1 to +4): 50.0% | % parasitemia, Mean (P. yoelii strain YM; D + 13): 6.5% | Parasitemia, mean (P. yoelii strain YM; D + 14, 10 mg per kg twice daily days +1 to +4): 35.0% | mortality (no. of dead mice/total no. of tested mice) (P. yoelii strain YM; D + 14, 10 mg/kg/day twice daily to D + 5): 1/5 | % parasitemia (mean ± SEM) (P. yoelii strain YM; D + 14, 10 mg/kg/day twice daily, 3 h after infection, D + 1 to D + 5): 17 ± 17% | % parasitemia (mean ± SEM) (P. yoelii strain YM; D + 14, 15 mg/kg/day twice daily, 3 h after infection, D + 1 to D + 5): 0% | % parasitemia (mean ± SEM) (P. yoelii strain YM; D + 14, i.p. 10 mg/kg four times daily D + 4 to D + 7): 58.6 ± 9.0% | % parasitemia (mean ± SEM) (P. yoelii strain YM; [4]): 0% | mortality (no. of dead mice/total no. of tested mice) (P. yoelii strain YM; [4]): 4/5 | mortality (no. of dead mice/total no. of tested mice) (P. yoelii strain YM; D + 14, i.p. 10 mg/kg/day twice daily to D + 3): (5/5) | mortality (no. of dead mice/total no. of tested mice) (P. yoelii strain YM; D + 14, i.p. 15 mg/kg/day twice daily to D + 3): 1/5 | % parasitemia (mean ± SEM) (P. yoelii strain YM; D + 14, i.p. 15 mg/kg/day twice daily, 3 h after infection and D + 1 to D + 3): 0% | Parasitemia, mean (P. yoelii strain YM; [5]): 2.0% | Parasitemia, single mice (P. yoelii strain YM; [5]): 2.0% | Parasitemia, mean (P. yoelii strain YM; [6]): 0.3% | Parasitemia, single mice (P. yoelii strain YM; [6]): 0.5% and 0.1% | mortality (no. of dead mice/total no. of tested mice) (P. yoelii strain YM; D + 16, 10 mg/kg/day twice daily to D + 5): 2/5 | % parasitemia (mean ± SEM) (P. yoelii strain YM; D + 16, 10 mg/kg/day twice daily, 3 h after infection, D + 1 to D + 5): 0% | % parasitemia (mean ± SEM) (P. yoelii strain YM; D + 16, 15 mg/kg/day twice daily, 3 h after infection, D + 1 to D + 5): 0% | % parasitemia (mean ± SEM) (P. yoelii strain YM; [7]): 75.8 ± 6.6% | mortality (no. of dead mice/total no. of tested mice) (P. yoelii strain YM; [7]): 1/5 | % parasitemia (mean ± SEM) (P. yoelii strain YM; [8]): 0% | mortality (no. of dead mice/total no. of tested mice) (P. yoelii strain YM; [8]): 4/5 | % parasitemia, Mean (P. yoelii strain YM; D + 16): 0% | Parasitemia, mean (P. yoelii strain YM; [9]): 0.0% | Parasitemia, single mice (P. yoelii strain YM; [9]): 0.0% | mortality (no. of dead mice/total no. of tested mice) (P. yoelii strain YM; D + 18, 10 mg/kg/day twice daily to D + 5): 2/5 | % parasitemia (mean ± SEM) (P. yoelii strain YM; D + 18, 10 mg/kg/day twice daily, 3 h after infection, D + 1 to D + 5): 0% | % parasitemia (mean ± SEM) (P. yoelii strain YM; D + 18, 15 mg/kg/day twice daily, 3 h after infection, D + 1 to D + 5): 0% | % parasitemia (mean ± SEM) (P. yoelii strain YM; [10]): 53 ± 25% | mortality (no. of dead mice/total no. of tested mice) (P. yoelii strain YM; [10]): 2/5 | % parasitemia (mean ± SEM) (P. yoelii strain YM; [11]): 0% | mortality (no. of dead mice/total no. of tested mice) (P. yoelii strain YM; [11]): 4/5 | % parasitemia (mean ± SEM) (P. yoelii strain YM; [12]): 19 ± 9.7% | mortality (no. of dead mice/total no. of tested mice) (P. yoelii strain YM; [12]): 3/5 | % parasitemia (mean ± SEM) (P. yoelii strain YM; [13]): 0% | mortality (no. of dead mice/total no. of tested mice) (P. yoelii strain YM; [13]): 4/5 | MIC (Gram positive cocci): 4000 to 8000 µg/mL (≈ 11800 to 23600 µM) | MIC (Sarcina lutea): 4 µg/mL (≈ 11.8 µM) | MIC (L. pneumophilia; L. pneumophilia serogr. 1, 4 strains): 1 to 4 µg/mL (≈ 2.96 to 11.8 µM) | MIC (L. pneumophilia; L. pneumophilia serogr. 2-7, 6 strains): 2 to 4 µg/mL (≈ 5.91 to 11.8 µM) | MIC (L. pneumophilia; read-out: MIC-values, clinical isolates): 1 to 4 µg/mL (≈ 2.96 to 11.8 µM)
